Results on 3 compounds are retold here after PubChem BioAssay AID1259407 (Chemical Carcinogenesis Research Information System (CCRIS), 2018).

For this data set, the system named is CCRIS mutagenicity, Ames/micronucleus/aberration tests. Briefly: CCRIS mutagenicity studies. The following applies: Test System: AMES SALMONELLA TYPHIMURIUM

Calls of active or inactive are those of the source. The rule behind the calls is not given here.

As to `COC(=O)c1ccccc1O`, the mutagenic call was “inactive; negative” (Strain/Indicator: TA98, Metabolic Activation: GUINEA PIG, LIVER, S-9, PCB, Method: PREINCUBATION); “inactive; negative” (Strain/Indicator: TA98, Metabolic Activation: HAMSTER, LIVER, S-9, AROCLOR 1254 (30%), Method: PREINCUBATION); “inactive; negative” (Strain/Indicator: TA98, Metabolic Activation: HAMSTER, LIVER, S-9, AROCLOR 1254 (50%), Method: PREINCUBATION); “active; positive” (Strain/Indicator: TA98, Metabolic Activation: HAMSTER, LIVER, S-9, PCB, Method: PREINCUBATION); “inactive; negative” (Strain/Indicator: TA98, Metabolic Activation: MOUSE, LIVER, S-9, PCB, Method: PREINCUBATION); “inactive; negative” (Strain/Indicator: TA98, Metabolic Activation: NONE, Method: PREINCUBATION). In addition, the mutagenic call runs as follows: (Strain/Indicator: TA98, Metabolic Activation: RAT, LIVER, S-9, AROCLOR 1254 (30%), Method: PREINCUBATION) “inactive; negative”; (Strain/Indicator: TA98, Metabolic Activation: RAT, LIVER, S-9, AROCLOR 1254 (50%), Method: PREINCUBATION) “inactive; negative”; (Strain/Indicator: TA98, Metabolic Activation: RAT, LIVER, S-9, PCB, Method: PREINCUBATION) “inactive; negative”; (Strain/Indicator: TA100, Metabolic Activation: GUINEA PIG, LIVER, S-9, PCB, Method: PREINCUBATION) “inactive; negative”; (Strain/Indicator: TA100, Metabolic Activation: HAMSTER, LIVER, S-9, AROCLOR 1254 (30%), Method: PREINCUBATION) “inactive; negative”; (Strain/Indicator: TA100, Metabolic Activation: HAMSTER, LIVER, S-9, AROCLOR 1254 (50%), Method: PREINCUBATION) “inactive; negative”. The mutagenic call (Strain/Indicator: TA100, Metabolic Activation: HAMSTER, LIVER, S-9, PCB, Method: PREINCUBATION) is “active; positive”; the mutagenic call (Strain/Indicator: TA100, Metabolic Activation: MOUSE, LIVER, S-9, PCB, Method: PREINCUBATION) was “inactive; negative”; the mutagenic call (Strain/Indicator: TA100, Metabolic Activation: NONE, Method: PREINCUBATION) was “inactive; negative”; the mutagenic call (Strain/Indicator: TA100, Metabolic Activation: RAT, LIVER, S-9, AROCLOR 1254 (30%), Method: PREINCUBATION) is “inactive; negative”; the mutagenic call (Strain/Indicator: TA100, Metabolic Activation: RAT, LIVER, S-9, AROCLOR 1254 (50%), Method: PREINCUBATION) was “inactive; negative”; the mutagenic call (Strain/Indicator: TA100, Metabolic Activation: RAT, LIVER, S-9, PCB, Method: PREINCUBATION) is “inactive; negative”. For the same compound, the mutagenic call is “inactive; negative” (Strain/Indicator: TA1535, Metabolic Activation: HAMSTER, LIVER, S-9, AROCLOR 1254 (30%), Method: PREINCUBATION); “inactive; negative” (Strain/Indicator: TA1535, Metabolic Activation: HAMSTER, LIVER, S-9, AROCLOR 1254 (50%), Method: PREINCUBATION); “inactive; negative” (Strain/Indicator: TA1535, Metabolic Activation: NONE, Method: PREINCUBATION); “inactive; negative” (Strain/Indicator: TA1535, Metabolic Activation: RAT, LIVER, S-9, AROCLOR 1254 (30%), Method: PREINCUBATION); “inactive; negative” (Strain/Indicator: TA1535, Metabolic Activation: RAT, LIVER, S-9, AROCLOR 1254 (50%), Method: PREINCUBATION); “inactive; negative” (Strain/Indicator: TA1537, Metabolic Activation: HAMSTER, LIVER, S-9, AROCLOR 1254 (30%), Method: PREINCUBATION). Also, the mutagenic call is “inactive; negative” (Strain/Indicator: TA1537, Metabolic Activation: HAMSTER, LIVER, S-9, AROCLOR 1254 (50%), Method: PREINCUBATION); “inactive; negative” (Strain/Indicator: TA1537, Metabolic Activation: NONE, Method: PREINCUBATION); “inactive; negative” (Strain/Indicator: TA1537, Metabolic Activation: RAT, LIVER, S-9, AROCLOR 1254 (30%), Method: PREINCUBATION); “inactive; negative” (Strain/Indicator: TA1537, Metabolic Activation: RAT, LIVER, S-9, AROCLOR 1254 (50%), Method: PREINCUBATION).
Regarding `Clc1cccc2cc3ccccc3cc12`, the mutagenic call is, setting by setting: (Strain/Indicator: TA98, Metabolic Activation: NONE, Method: STANDARD PLATE) “inactive; negative”; (Strain/Indicator: TA98, Metabolic Activation: RAT, LIVER, S-9, AROCLOR 1254, Method: STANDARD PLATE) “inactive; negative”; (Strain/Indicator: TA100, Metabolic Activation: NONE, Method: STANDARD PLATE) “inactive; negative”; (Strain/Indicator: TA100, Metabolic Activation: RAT, LIVER, S-9, AROCLOR 1254, Method: STANDARD PLATE) “inactive; negative”.
In the case of `O=C1c2cc(O)cc(O)c2C(=O)c2c(O)cc(CO)cc21`, the mutagenic call reads like this: (Strain/Indicator: TA1537, Metabolic Activation: RAT, LIVER, S-9, PCB, Method: STANDARD PLATE) “active; positive”; (Strain/Indicator: TA1537, Metabolic Activation: RAT, LIVER, S-9, POLYCHLORINATED BIPHENYLS, Method: STANDARD PLATE) “active; positive”.
